{"source": "patent US12329159B2", "about": "“Systems and methods for use of chlorine dioxide in cultivation and post-harvest applications” (Prokure Solutions, LLC, priority 2018, dated 2025)", "key": {"Cannabis plants [1]": {"tested_on": "Cannabis plants", "assay": "Effects of chlorine dioxide on vegetative growth (grow tent, leaf count)", "assay_type": "in vivo", "conditions": "about 3 mg of chlorine dioxide per hour, 10 days; for Leaf Count # of new leaves / Leaf Count Final: Experimental tent, 240 cubic feet", "procedure": "Experiments were performed to determine the effects of using a continuous release dose of about 3 mg of chlorine dioxide per hour on the vegetative growth of Cannabis plants.\nCannabis plants were placed in a grow tent and grown under artificial lighting for 10 days. Leaf counts were performed prior to placing in the tent and again after 10 days. Two separate grow tents were used, one for the experiment and one as the control. The total leaf count was compared between the experimental and control plants. Temperature and relative humidity measurements were taken 3 times per day to ensure both tents maintained the same environmental conditions.\nA pouch was hung from the top of the inside of the experimental tent. The pouch dispensed approximately 3 mg of chlorine dioxide per hour for the duration of the trial (10 days). Within the experimental tent the Cannabis plants were exposed to about 720 mg of gaseous chlorine dioxide over the 10-day period.\nThree Cannabis plants were placed into each tent. Two of the plants were of a Cannabis indica variety, and one plant was a Cannabis sativa variety. The photoperiod used in both tents was 20 hours with lights on followed by 4 hours with lights off. All watering, nutrients, pest control, etc. were identical for all plants."}, "Cannabis plants [2]": {"tested_on": "Cannabis plants", "assay": "Toxicity responses of Cannabis plants to foliar applications of chlorine dioxide", "assay_type": "in vivo", "conditions": "for plants with damage to floral tissue (discoloration): after the third application", "procedure": "Regular and excessive rates of chlorine dioxide dissolved in water were sprayed up to five times at 2-day intervals on two varieties of Cannabis plants in both vegetative and flowering stages to determine if plant damage would result. Adverse effects were assessed based on visible discoloration or chlorosis of leaves and/or flowers. All plants were monitored for several days after the final application of chlorine dioxide.\nExperiments were performed in a greenhouse with temperatures between 70° F. and 80° F. Plants were potted in soil and appeared healthy and undamaged prior to treatment. All plants received the same amount of water and nutrients as controls, delivered via soil drenching. All plants, including controls, were the same age. At the beginning of the experiments, both flowering and vegetative plants had 3 weeks of the respective growth stage remaining.\nConcentrations of chlorine dioxide tested include 0, 50, 100, and 500 ppm. All chlorine dioxide solutions were prepared from 500 ppm stock solution, mixed in containers and used immediately. Each of the rates was tested in triplicate with separate plants in both stages of growth and with Cannabis indica and Cannabis sativa Cannabis plants. A common trigger sprayer bottle with the tip adjusted to a mist setting was used to apply treatments. Plants were sprayed until all leaves and stems were visibly wet. Each treatment rate was applied at 2-day intervals, and the number of applications ranged from 1 to 5 depending on the amount of damage that occurred to the plant.\nDamage was assessed 2 days after an application and prior to the next application. Treated plants were assessed for damage 6 days after the 5th and final spray treatment. Observed symptoms associated with the application of chlorine dioxide were necrosis of leaf tissue appearing as lesions between and across leaf veins and at leaf margins. Early symptoms included yellowing of leaves. Some lesions had dark brown borders and/or appeared desiccated."}, "Basidiospores": {"tested_on": "Basidiospores", "assay": "Spore trap testing, treated greenhouse: Basidiospores", "assay_type": "in vivo", "conditions": "1.2 mg chlorine dioxide gas per hour per 4000 cubic feet", "procedure": "(§1) Very low-level chlorine dioxide protection using about 3 mg chlorine dioxide gas per hour for every 4000 cubic feet (50-gram ProKure® D Extended Release Gas product (ProKure® Solutions), 2000 mg total over 4 weeks) was tested to determine the effects on reduction and prevention of fungal microorganism counts. The rate of chlorine dioxide production will vary depending on the relative humidity (RH) in the room. The above rate is for RH range of 40-60%. Each 3 mg chlorine dioxide per hour product (50-gram) unit will cover 4000 cubic feet of space. The 4000 cubic foot volume is recommended for safety reasons. This volume of space insures that the concentration of the gas remains below the OSHA regulated Permissible Exposure Limit (PEL) which is 0.1 ppmv (time weighted average (TWA) over a 8-hours per day or 40-hour work week) and the Short Term Exposure Limit (STEL) which is 0.3 ppmv (TWA over any 15-minute period) for chlorine dioxide.\n(§2) All data is based on the dose described a unless otherwise noted. The spore counts per cubic meter prior to treatment are compared to spore counts per cubic meter post treatment with the treatment time indicated. […]\n(§3) Treatment was performed using 1.2 mg chlorine dioxide gas per hour per 4000 cubic feet. […] The fungus could not be detected by visual inspection after about 30 days of treatment. […]"}, "Bipolaris/Drechslera": {"tested_on": "Bipolaris/Drechslera", "assay": "Spore trap testing, treated greenhouse: Bipolaris/Drechslera", "assay_type": "in vivo", "conditions": "1.2 mg chlorine dioxide gas per hour per 4000 cubic feet", "procedure": "as §1, §2, §3"}, "Fusarium": {"tested_on": "Fusarium", "assay": "Spore trap testing, treated greenhouse: Fusarium", "assay_type": "in vivo", "conditions": "1.2 mg chlorine dioxide gas per hour per 4000 cubic feet", "procedure": "as §1, §2, §3"}, "Oidium": {"tested_on": "Oidium", "assay": "Spore trap testing, treated greenhouse: Oidium", "assay_type": "in vivo", "conditions": "1.2 mg chlorine dioxide gas per hour per 4000 cubic feet", "procedure": "as §1, §2, §3"}, "Penicillium/Aspergillus": {"tested_on": "Penicillium/Aspergillus", "assay": "Spore trap testing, treated greenhouse: Penicillium/Aspergillus", "assay_type": "in vivo", "conditions": "1.2 mg chlorine dioxide gas per hour per 4000 cubic feet", "procedure": "as §1, §2, §3"}, "Torula": {"tested_on": "Torula", "assay": "Spore trap testing, treated greenhouse: Torula", "assay_type": "in vivo", "conditions": "1.2 mg chlorine dioxide gas per hour per 4000 cubic feet", "procedure": "as §1, §2, §3"}, "[3]": {"tested_on": "unidentified fungal strain having an appearance similar to powdery mildew", "assay": "Visual inspection of fungal infection on greenhouse mother plants", "assay_type": "in vivo", "conditions": "1.2 mg chlorine dioxide gas per hour per 4000 cubic feet, 4500 mother plants", "procedure": "An experimental trial was performed in a greenhouse with approximately 1×10^6 cubic feet of space holding 4500 mother plants. All plants were potted in soil and were approximately 5-7 feet tall, depending on whether cuttings had recently been taken for clone propagation. Plants evidenced visible signs of infection with an unidentified fungal strain having an appearance similar to powdery mildew. The fungus was actively growing and covered most leaves and major stalks. The fungus was a strain that only infected the surface of the plants and was not systemic in the plants.\nTreatment was performed using 1.2 mg chlorine dioxide gas per hour per 4000 cubic feet. Spore trap testing was performed pre-treatment and at seven days post-treatment. The fungus could not be detected by visual inspection after about 30 days of treatment. Treatment continued as a preventative measure, with further spore trap testing at 45 days post treatment. Spore trap data follows below in Table 5."}, "[4]": {"conditions": "cited from earlier work"}, "[5]": {"conditions": "500 ppm foliar spray, all plants, after the fifth application"}}, "note": "Values joined by “and” are separate entries in the source; they are usually repeats but may differ in a detail not shown here. Identical values can stand only once."}
{"smiles": "[O][Cl+][O-]", "note": "[chlorine dioxide]", "values": [{"measurement": "Leaf Count # of new leaves", "setting": "Cannabis plants [1]; Indica", "value": "68 and 36"}, {"measurement": "Leaf Count Final", "setting": "Cannabis plants [1]; Indica", "value": "92 and 61"}, {"measurement": "Leaf Count # of new leaves", "setting": "Cannabis plants [1]; Sativa", "value": 52}, {"measurement": "Leaf Count Final", "setting": "Cannabis plants [1]; Sativa", "value": 83}, {"measurement": "visible sign of adverse effects", "setting": "Cannabis plants [1]; 240 cubic feet tent", "value": "none of the plants showed any visible sign of adverse effects"}, {"measurement": "foliar or flower tissue damage", "setting": "Cannabis plants [2]; 50 ppm chlorine dioxide in water, foliar spray, five applications at 2-day intervals", "value": "No foliar or flower tissue damage was visible"}, {"measurement": "plants exhibiting damage to leaves", "setting": "Cannabis plants [2]; 100 ppm foliar spray, indica-type flowering plants, two days after the 4th application", "value": "Two out of the three"}, {"measurement": "damage to leaves or flowers", "setting": "Cannabis plants [2]; 100 ppm foliar spray, sativa-type flowering plants", "value": "None of the sativa-type flowering plants exhibited damage to leaves or flowers"}, {"measurement": "visible damage to leaves", "setting": "Cannabis plants [2]; 100 ppm foliar spray, vegetative plants of both varieties", "value": "exhibited visible damage to leaves following the fourth application"}, {"measurement": "smell compared with control plants", "setting": "Cannabis plants [2]; [5]", "value": "did not have the same smell as control plants"}, {"measurement": "tissue damage", "setting": "Cannabis plants [2]; [5]", "value": "exhibited tissue damage after the fifth application"}, {"measurement": "leaf damage", "setting": "Cannabis plants [2]; 500 ppm foliar spray, all plants, single application", "value": "exhibited leaf damage 24 to 48 hours after a single application"}, {"measurement": "plants with damage to floral tissue (discoloration)", "setting": "Cannabis plants [2]; 500 ppm foliar spray, indica-type plants", "value": "2 of the 3"}, {"measurement": "plants with damage to floral tissue (discoloration)", "setting": "Cannabis plants [2]; 500 ppm foliar spray, sativa-type plants", "value": "1 of the 3"}, {"measurement": "Basidiospores Count", "setting": "Basidiospores; 7 Days Post-Treatment", "value": 53, "unit": "per cubic meter"}, {"measurement": "Basidiospores Count", "setting": "Basidiospores; 45 Days Post-Treatment", "value": 0, "unit": "per cubic meter"}, {"measurement": "Bipolaris/Drechslera spore Count", "setting": "Bipolaris/Drechslera; 7 Days Post-Treatment", "value": 0, "unit": "per cubic meter"}, {"measurement": "Bipolaris/Drechslera spore Count", "setting": "Bipolaris/Drechslera; 45 Days Post-Treatment", "value": 0, "unit": "per cubic meter"}, {"measurement": "Fusarium spore Count", "setting": "Fusarium; 7 Days Post-Treatment", "value": 0, "unit": "per cubic meter"}, {"measurement": "Fusarium spore Count", "setting": "Fusarium; 45 Days Post-Treatment", "value": 0, "unit": "per cubic meter"}, {"measurement": "Oidium spore Count", "setting": "Oidium; 7 Days Post-Treatment", "value": 13, "unit": "per cubic meter"}, {"measurement": "Oidium spore Count", "setting": "Oidium; 45 Days Post-Treatment", "value": 0, "unit": "per cubic meter"}, {"measurement": "Penicillium/Aspergillus spore Count", "setting": "Penicillium/Aspergillus; 7 Days Post-Treatment", "value": 0, "unit": "per cubic meter"}, {"measurement": "Penicillium/Aspergillus spore Count", "setting": "Penicillium/Aspergillus; 45 Days Post-Treatment", "value": 0, "unit": "per cubic meter"}, {"measurement": "Torula spore Count", "setting": "Torula; 7 Days Post-Treatment", "value": 0, "unit": "per cubic meter"}, {"measurement": "Torula spore Count", "setting": "Torula; 45 Days Post-Treatment", "value": 0, "unit": "per cubic meter"}, {"measurement": "time of treatment after which the fungus could not be detected by visual inspection", "setting": "[3]", "value": "about 30 days"}, {"measurement": "Short Term Exposure Limit (STEL)", "setting": "[4]; TWA over any 15-minute period", "value": 0.3, "unit": "ppmv"}, {"measurement": "OSHA regulated Permissible Exposure Limit (PEL)", "setting": "[4]; time weighted average over 8 hours per day or 40-hour work week", "value": 0.1, "unit": "ppmv"}]}
